The values below come from PubChem BioAssay (NCI).

Molecules are shown by their SMILES. Values joined by “and” are separate entries in the source; they are usually repeats but may differ in a detail not shown here. Equal entries are not always repeated.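 A five-concentration, 48-hour dose response in 96-well plates underlies each endpoint, interpolated linearly between surrounding concentrations. GI50 marks 50% less growth. TGI denotes the concentration required for complete inhibition of growth.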

Some test systems named below: UACC-257 melanoma; HCC-2998 colon; HT29 colon; SF-295 CNS; MDA-MB-435; A498 renal; NCI-H226 lung; SK-MEL-5 melanoma; K-562 leukemia; HOP-62 NSCLC.
Holding throughout (assay): DTP human tumour cell line panel, 48 h

The term GI50 denotes the concentration that inhibits growth by half. By TGI is commonly meant the concentration at which net growth stops. Read a low TGI as greater sensitivity of the cells. `NC[C@@](O)(c1ccc(Cl)cc1)c1ccc(-c2cn[nH]c2)cc1`: the GI50 with UACC-257 melanoma was 1.7 µM; in the experiment with HCC-2998 colon, over 100 µM; with HT29 colon, 1.98 µM; with SF-295 CNS, 0.969 µM; with MDA-MB-435, 1.81 µM; in the experiment with A498 renal, 0.438 µM and 0.313 µM. For the same compound, the GI50 was 1.42 µM and 2.19 µM with NCI-H226 lung; 1.69 µM with K-562 leukemia; 2.04 µM and 0.89 µM with HOP-62 NSCLC. Besides, the TGI with UACC-257 melanoma is 4.57 µM; with HCC-2998 colon, over 100 µM; in the experiment on HT29 colon, 7.26 µM; in the experiment with SF-295 CNS, 4.62 µM; in the experiment with MDA-MB-435, 3.61 µM; in the experiment with A498 renal, > 23.5 µM and 7.45 µM. Also, the TGI was over 100 µM in the experiment on NCI-H226 lung, over 100 µM in the experiment on SK-MEL-5 melanoma, 3.53 µM in the experiment on K-562 leukemia and over 100 µM in the experiment on HOP-62 NSCLC.

As to `O=C1OC2C(O)C(=O)OC2C1O` (stereo unspecified), the concentration for total growth inhibition (TGI) with UACC-257 melanoma, in the experiment with HCC-2998 colon, in the experiment with HT29 colon, with SF-295 CNS, in the experiment with MDA-MB-435 and with A498 renal was over 100 µM throughout. The concentration for total growth inhibition (TGI) in the experiment with NCI-H226 lung, in the experiment with SK-MEL-5 melanoma, with K-562 leukemia and in the experiment on HOP-62 NSCLC was over 100 µM in each case.

For the compound `COc1ccc(/C=C/C(=O)c2ccc(Nc3ccnc4cc(Cl)ccc34)cc2)cc1`, the GI50 was over 100 µM with UACC-257 melanoma; over 100 µM in the experiment on HCC-2998 colon; 4.2 µM with HT29 colon; over 100 µM in the experiment on SF-295 CNS; 65.6 µM with MDA-MB-435; over 52.3 µM with A498 renal. Besides, the GI50 in the experiment on NCI-H226 lung is over 100 µM; with SK-MEL-5 melanoma it was 21.6 µM; in the experiment with K-562 leukemia it was 4.15 µM; with HOP-62 NSCLC it was over 100 µM. For the same compound, the TGI in the experiment on UACC-257 melanoma, in the experiment with HCC-2998 colon, in the experiment with HT29 colon, in the experiment with SF-295 CNS, with MDA-MB-435 and in the experiment with A498 renal was over 100 µM throughout. The concentration for total growth inhibition (TGI) was over 100 µM in the experiment with NCI-H226 lung, over 100 µM with SK-MEL-5 melanoma, over 54 µM with K-562 leukemia and over 100 µM in the experiment with HOP-62 NSCLC.

Regarding `O=c1cccc(C#CC#C/C=C/CO)o1`, the GI50 with UACC-257 melanoma was 2.07 µM; with HCC-2998 colon it was 2.09 µM; in the experiment on HT29 colon, 3.89 µM; in the experiment on SF-295 CNS, 5.84 µM; with MDA-MB-435 it was 1.99 µM; in the experiment on A498 renal, 7.57 µM. The GI50 with NCI-H226 lung was 1.31 µM; in the experiment on SK-MEL-5 melanoma, 2.48 µM; with K-562 leukemia, 4.92 µM; in the experiment on HOP-62 NSCLC, 2.08 µM. Further, the TGI with UACC-257 melanoma was 4.7 µM; with HCC-2998 colon, 3.52 µM; with HT29 colon, over 100 µM; with SF-295 CNS, 18.8 µM; in the experiment with MDA-MB-435 it was 4.69 µM; with A498 renal, 22.7 µM. Further, the TGI in the experiment with NCI-H226 lung is 7.68 µM; in the experiment on SK-MEL-5 melanoma it was 6.24 µM; in the experiment with K-562 leukemia, over 100 µM; in the experiment on HOP-62 NSCLC, 4.14 µM.

On to `C=C(CN1CCN(c2cccc(F)c2)CC1)c1ccc(C(=O)Nc2ccccc2N)cc1`, for which the GI50 in the experiment on UACC-257 melanoma is 8.19 µM; with HCC-2998 colon, 2.98 µM; with HT29 colon, 1.09 µM; with SF-295 CNS, 2.77 µM; with MDA-MB-435, 0.283 µM; with A498 renal, 2.12 µM. In addition, the GI50 is 4.17 µM in the experiment on NCI-H226 lung, 1.91 µM in the experiment with SK-MEL-5 melanoma, 0.706 µM in the experiment with K-562 leukemia and 0.83 µM with HOP-62 NSCLC. Besides, the total growth inhibition concentration (TGI) in the experiment with UACC-257 melanoma was 47.5 µM; in the experiment on HCC-2998 colon, 11 µM; in the experiment with HT29 colon, 4.06 µM; in the experiment with SF-295 CNS, 73.6 µM; in the experiment with MDA-MB-435, 1.74 µM; with A498 renal it was 9.08 µM. Moreover, the concentration for total growth inhibition (TGI) in the experiment on NCI-H226 lung was 35.2 µM; in the experiment with SK-MEL-5 melanoma, 17.2 µM; in the experiment with K-562 leukemia, 13.4 µM; with HOP-62 NSCLC, 17.5 µM.

`Cc1ccc(NC(=O)c2nc(S(C)=O)oc2-c2ccc(F)cc2)cc1Nc1nccc(-c2cccnc2)n1` (stereo unspecified): the GI50 with UACC-257 melanoma was 2.72 µM; in the experiment on HCC-2998 colon, 3.91 µM; in the experiment on HT29 colon, 1.82 µM; with SF-295 CNS it was 15.1 µM; in the experiment with MDA-MB-435, 2.13 µM; in the experiment with A498 renal, 7.19 µM. For the same compound, the GI50 with NCI-H226 lung was 3.84 µM; with SK-MEL-5 melanoma, 1.84 µM; with K-562 leukemia, 0.454 µM; with HOP-62 NSCLC, 2.95 µM. Moreover, the TGI is 7.74 µM with UACC-257 melanoma; 13 µM in the experiment with HCC-2998 colon; 3.53 µM with HT29 colon; 29.2 µM with SF-295 CNS; 4.77 µM in the experiment on MDA-MB-435; 20.2 µM in the experiment with A498 renal. Besides, the concentration for total growth inhibition (TGI) was 25.8 µM in the experiment on NCI-H226 lung, 3.59 µM in the experiment with SK-MEL-5 melanoma, 3.3 µM in the experiment on K-562 leukemia and 8.04 µM in the experiment with HOP-62 NSCLC.

Take `CC(=O)OCC1OC(n2c(-c3ccccc3)c(C)c(C)c(C#N)c2=S)C(OC(C)=O)C(OC(C)=O)C1OC(C)=O` (stereo unspecified): the TGI in the experiment on UACC-257 melanoma was over 100 µM; with HCC-2998 colon, over 100 µM; in the experiment on HT29 colon, over 100 µM; in the experiment with SF-295 CNS it was > 50 µM and 66.4 µM; with MDA-MB-435, over 100 µM; with A498 renal it was over 100 µM. For the same compound, the total growth inhibition concentration (TGI) in the experiment on NCI-H226 lung is over 100 µM; in the experiment with SK-MEL-5 melanoma it was over 100 µM; with K-562 leukemia it was over 100 µM; with HOP-62 NSCLC, 40.4 µM and > 100 µM. Moreover, the GI50 in the experiment with K-562 leukemia was 24.8 µM and > 100 µM; in the experiment with HOP-62 NSCLC, 14.3 µM and > 100 µM.

In the case of `Cc1ccccc1/C=C1\CN(C(=O)OC(C)(C)C)C/C(=C\c2ccccc2C)C1=O`, the GI50 was 3.12 µM in the experiment with UACC-257 melanoma; 1.94 µM in the experiment with HCC-2998 colon; 2.86 µM with HT29 colon; 2.19 µM with SF-295 CNS; 2.51 µM with MDA-MB-435; 3 µM with A498 renal. The GI50 with NCI-H226 lung was 2.01 µM; in the experiment with SK-MEL-5 melanoma it was 2.12 µM; in the experiment with K-562 leukemia, 2.86 µM; with HOP-62 NSCLC, 3.43 µM. The TGI came out at 9.92 µM in the experiment on UACC-257 melanoma; 3.78 µM in the experiment on HCC-2998 colon; 7.61 µM in the experiment with HT29 colon; 5.37 µM in the experiment on SF-295 CNS; 5.45 µM in the experiment with MDA-MB-435; 6.24 µM in the experiment on A498 renal. The total growth inhibition concentration (TGI) with NCI-H226 lung is 4.14 µM; in the experiment with SK-MEL-5 melanoma it was 4.49 µM; with K-562 leukemia it was over 100 µM; in the experiment with HOP-62 NSCLC, 11.3 µM.
